Legend:
Experiment in all cases: Kinase panel study
Assay type in all cases: biochemical
Conditions in all cases: read-out: Percentage of inhibition; for inhibition at 1 µM: 1000nM; for inhibition at 10 µM: 10000nM
RPS6KA4 (MSK2) = target: T1, RPS6KA4 (MSK2) (Homo sapiens, UniProt O75676)
T1 construct: purchased Thermo Fisher Scientific
Procedure, shortened: (§1)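 Kinase inhibition was determined by a contract provider in cell-free ZLyte or Adapta assays. Results are expressed as % inhibition at 10 or 1 µM.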

CSNK1G2 (CK1 gamma 2) = target: T2, CSNK1G2 (CK1 gamma 2) (Homo sapiens, UniProt P78368)
T2 construct: purchased Thermo Fisher Scientific
Procedure, shortened: as §1

CAMK4 (CaMKIV) = target: T3, CAMK4 (CaMKIV) (Homo sapiens, UniProt Q16566)
T3 construct: purchased Thermo Fisher Scientific
Procedure, shortened: as §1

[1] = target: T4, PIK3CA E545K/PIK3R1 (p11 0 alpha E545K/p85 alpha) (Homo sapiens, UniProt P42336, E545K)
T4 construct: purchased Thermo Fisher Scientific
T4 sequence (P42336 whole entry E545K): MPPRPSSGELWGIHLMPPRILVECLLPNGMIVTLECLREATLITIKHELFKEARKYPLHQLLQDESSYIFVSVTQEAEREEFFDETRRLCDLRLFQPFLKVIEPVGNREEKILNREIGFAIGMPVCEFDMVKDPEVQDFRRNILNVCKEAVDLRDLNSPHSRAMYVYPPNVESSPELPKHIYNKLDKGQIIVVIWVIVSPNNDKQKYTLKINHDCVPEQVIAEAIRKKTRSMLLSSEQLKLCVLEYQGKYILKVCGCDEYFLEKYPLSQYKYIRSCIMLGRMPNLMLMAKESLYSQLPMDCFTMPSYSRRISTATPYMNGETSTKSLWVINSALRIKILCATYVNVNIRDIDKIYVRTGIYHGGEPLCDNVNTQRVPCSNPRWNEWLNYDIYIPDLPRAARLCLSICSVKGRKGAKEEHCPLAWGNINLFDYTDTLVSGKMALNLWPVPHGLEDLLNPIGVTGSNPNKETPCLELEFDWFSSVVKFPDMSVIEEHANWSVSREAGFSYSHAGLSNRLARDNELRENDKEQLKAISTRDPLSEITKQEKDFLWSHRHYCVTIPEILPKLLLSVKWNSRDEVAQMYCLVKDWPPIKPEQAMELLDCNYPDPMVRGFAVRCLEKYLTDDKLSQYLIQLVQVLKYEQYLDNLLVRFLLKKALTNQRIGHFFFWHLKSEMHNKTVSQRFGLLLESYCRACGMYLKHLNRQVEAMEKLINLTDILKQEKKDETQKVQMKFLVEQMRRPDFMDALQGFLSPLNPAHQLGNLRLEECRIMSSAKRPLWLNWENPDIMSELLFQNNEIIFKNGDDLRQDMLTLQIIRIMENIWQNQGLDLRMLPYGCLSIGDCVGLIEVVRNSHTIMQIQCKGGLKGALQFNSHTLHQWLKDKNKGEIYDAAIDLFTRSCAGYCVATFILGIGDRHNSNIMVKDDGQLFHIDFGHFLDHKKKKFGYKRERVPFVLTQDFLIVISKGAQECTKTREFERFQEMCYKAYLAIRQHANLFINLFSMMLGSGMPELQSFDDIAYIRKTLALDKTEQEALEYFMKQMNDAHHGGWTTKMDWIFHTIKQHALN
T4 sequence (P27986 whole entry partner): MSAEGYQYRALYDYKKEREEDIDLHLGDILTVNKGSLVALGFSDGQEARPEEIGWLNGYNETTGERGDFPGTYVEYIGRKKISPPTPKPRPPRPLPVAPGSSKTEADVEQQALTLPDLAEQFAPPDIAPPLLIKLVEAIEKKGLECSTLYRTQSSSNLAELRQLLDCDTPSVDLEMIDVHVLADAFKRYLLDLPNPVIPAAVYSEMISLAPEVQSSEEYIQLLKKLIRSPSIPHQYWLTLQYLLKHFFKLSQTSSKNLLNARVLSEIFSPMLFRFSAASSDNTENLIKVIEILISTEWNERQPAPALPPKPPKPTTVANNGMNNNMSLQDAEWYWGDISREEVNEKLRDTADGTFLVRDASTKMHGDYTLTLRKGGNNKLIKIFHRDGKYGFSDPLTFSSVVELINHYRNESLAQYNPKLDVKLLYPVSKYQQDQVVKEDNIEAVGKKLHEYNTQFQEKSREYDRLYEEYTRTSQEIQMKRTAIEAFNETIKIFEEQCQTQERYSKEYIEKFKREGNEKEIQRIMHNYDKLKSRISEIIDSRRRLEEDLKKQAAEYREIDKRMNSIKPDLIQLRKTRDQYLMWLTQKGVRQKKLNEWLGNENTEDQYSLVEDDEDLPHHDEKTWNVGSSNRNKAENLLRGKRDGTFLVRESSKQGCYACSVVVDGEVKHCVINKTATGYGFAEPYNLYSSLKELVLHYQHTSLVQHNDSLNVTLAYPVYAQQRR
Procedure, shortened: as §1

PIM2 = target: T5, PIM2 (Homo sapiens, UniProt Q9P1W9)
T5 construct: purchased Thermo Fisher Scientific
T5 sequence (Q9P1W9 whole entry): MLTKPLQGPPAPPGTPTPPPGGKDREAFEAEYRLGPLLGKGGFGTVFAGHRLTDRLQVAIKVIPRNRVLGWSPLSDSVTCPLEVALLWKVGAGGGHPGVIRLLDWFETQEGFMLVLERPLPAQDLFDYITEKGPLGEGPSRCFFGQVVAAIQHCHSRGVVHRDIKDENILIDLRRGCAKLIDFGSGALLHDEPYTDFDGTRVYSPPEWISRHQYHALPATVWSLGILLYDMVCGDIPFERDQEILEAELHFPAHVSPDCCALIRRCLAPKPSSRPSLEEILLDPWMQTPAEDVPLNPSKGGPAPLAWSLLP
Procedure, shortened: as §1

BMX = target: T6, BMX (Homo sapiens, UniProt P51813)
T6 construct: purchased Thermo Fisher Scientific
T6 sequence (P51813 1-675): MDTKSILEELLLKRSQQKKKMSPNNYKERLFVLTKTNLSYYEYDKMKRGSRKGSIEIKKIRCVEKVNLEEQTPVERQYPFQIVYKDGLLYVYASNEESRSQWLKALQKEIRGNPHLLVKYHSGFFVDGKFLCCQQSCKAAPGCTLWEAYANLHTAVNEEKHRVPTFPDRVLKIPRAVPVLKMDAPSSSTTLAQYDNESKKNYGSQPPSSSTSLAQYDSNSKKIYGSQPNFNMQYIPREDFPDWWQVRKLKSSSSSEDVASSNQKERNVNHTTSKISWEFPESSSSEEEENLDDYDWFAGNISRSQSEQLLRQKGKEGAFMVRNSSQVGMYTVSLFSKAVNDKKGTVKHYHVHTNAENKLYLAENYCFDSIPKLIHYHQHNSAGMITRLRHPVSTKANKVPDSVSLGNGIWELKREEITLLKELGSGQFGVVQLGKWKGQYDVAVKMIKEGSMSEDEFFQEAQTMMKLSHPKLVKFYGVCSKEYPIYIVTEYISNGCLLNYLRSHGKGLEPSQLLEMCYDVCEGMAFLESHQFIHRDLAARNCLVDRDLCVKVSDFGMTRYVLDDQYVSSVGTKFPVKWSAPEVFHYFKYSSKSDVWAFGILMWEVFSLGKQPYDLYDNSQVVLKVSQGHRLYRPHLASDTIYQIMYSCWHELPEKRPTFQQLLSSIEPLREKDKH
Procedure, shortened: as §1

PRKD2 (PKD2) = target: T7, PRKD2 (PKD2) (Homo sapiens, UniProt Q9BZL6)
T7 construct: purchased Thermo Fisher Scientific
T7 sequence (Q9BZL6 1-878): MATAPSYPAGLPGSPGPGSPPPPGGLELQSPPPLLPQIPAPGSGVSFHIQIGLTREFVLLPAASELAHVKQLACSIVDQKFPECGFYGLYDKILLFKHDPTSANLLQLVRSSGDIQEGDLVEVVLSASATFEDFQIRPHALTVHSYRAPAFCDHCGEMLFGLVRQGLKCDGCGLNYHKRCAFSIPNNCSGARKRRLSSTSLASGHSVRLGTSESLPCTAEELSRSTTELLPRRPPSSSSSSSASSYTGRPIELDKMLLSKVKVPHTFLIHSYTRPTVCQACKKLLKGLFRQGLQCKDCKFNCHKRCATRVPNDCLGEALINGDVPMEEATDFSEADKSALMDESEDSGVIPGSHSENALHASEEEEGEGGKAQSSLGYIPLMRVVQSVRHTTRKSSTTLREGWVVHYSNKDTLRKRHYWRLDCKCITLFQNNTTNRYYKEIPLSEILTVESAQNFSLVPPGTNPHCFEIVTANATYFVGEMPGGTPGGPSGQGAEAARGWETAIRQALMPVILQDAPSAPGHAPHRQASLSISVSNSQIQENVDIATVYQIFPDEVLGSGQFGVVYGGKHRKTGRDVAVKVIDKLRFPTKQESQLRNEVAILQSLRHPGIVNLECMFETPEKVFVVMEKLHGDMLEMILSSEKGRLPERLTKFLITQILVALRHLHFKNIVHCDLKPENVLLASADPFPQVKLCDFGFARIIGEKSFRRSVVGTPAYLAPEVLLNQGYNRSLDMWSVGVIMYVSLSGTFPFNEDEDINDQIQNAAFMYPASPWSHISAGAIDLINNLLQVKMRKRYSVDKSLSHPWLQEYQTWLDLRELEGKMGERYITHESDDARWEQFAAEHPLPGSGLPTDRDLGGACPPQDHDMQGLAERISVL
Procedure, shortened: as §1

MET (cMet) Y1235D = target: T8, MET (cMet) Y1235D (Homo sapiens, UniProt P08581, Y1235D)
T8 construct: purchased Thermo Fisher Scientific
T8 sequence (P08581 25-1390 Y1235D): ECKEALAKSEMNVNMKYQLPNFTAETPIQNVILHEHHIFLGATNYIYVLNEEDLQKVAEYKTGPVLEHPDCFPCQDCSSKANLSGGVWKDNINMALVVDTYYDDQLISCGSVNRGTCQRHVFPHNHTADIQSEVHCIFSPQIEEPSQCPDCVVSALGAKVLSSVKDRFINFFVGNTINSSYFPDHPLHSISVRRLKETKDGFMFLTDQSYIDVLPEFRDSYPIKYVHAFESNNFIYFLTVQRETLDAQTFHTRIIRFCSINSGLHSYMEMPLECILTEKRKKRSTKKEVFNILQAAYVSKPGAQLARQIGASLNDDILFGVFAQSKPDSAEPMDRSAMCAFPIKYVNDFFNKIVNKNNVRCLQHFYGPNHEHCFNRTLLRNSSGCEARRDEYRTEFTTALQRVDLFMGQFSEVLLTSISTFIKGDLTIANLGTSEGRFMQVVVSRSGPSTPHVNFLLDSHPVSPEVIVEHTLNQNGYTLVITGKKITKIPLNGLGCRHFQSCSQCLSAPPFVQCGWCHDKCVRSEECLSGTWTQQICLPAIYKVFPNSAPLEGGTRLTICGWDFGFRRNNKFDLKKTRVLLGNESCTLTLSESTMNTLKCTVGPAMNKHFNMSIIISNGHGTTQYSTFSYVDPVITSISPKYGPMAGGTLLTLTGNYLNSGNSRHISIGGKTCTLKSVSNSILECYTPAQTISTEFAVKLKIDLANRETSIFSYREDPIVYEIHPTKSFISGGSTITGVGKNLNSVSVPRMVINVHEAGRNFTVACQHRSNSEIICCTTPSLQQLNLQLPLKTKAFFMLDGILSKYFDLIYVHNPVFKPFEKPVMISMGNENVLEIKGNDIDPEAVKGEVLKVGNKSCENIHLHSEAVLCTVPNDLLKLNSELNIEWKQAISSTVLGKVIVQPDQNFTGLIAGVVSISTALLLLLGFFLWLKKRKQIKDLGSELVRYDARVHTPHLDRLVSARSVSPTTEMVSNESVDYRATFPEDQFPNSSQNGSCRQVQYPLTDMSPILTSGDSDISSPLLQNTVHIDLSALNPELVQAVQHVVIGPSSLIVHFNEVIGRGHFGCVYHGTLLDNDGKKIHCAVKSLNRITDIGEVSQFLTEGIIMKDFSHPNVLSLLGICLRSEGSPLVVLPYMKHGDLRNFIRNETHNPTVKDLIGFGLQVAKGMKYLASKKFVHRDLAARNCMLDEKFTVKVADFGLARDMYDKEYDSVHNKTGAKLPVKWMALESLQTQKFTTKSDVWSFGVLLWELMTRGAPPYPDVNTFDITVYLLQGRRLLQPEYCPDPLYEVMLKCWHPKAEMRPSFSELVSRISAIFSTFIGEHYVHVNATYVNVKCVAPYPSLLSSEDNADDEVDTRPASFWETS
Procedure, shortened: as §1

CSK = target: T9, CSK (Homo sapiens, UniProt P41240)
T9 construct: purchased Thermo Fisher Scientific
T9 sequence (P41240 whole entry): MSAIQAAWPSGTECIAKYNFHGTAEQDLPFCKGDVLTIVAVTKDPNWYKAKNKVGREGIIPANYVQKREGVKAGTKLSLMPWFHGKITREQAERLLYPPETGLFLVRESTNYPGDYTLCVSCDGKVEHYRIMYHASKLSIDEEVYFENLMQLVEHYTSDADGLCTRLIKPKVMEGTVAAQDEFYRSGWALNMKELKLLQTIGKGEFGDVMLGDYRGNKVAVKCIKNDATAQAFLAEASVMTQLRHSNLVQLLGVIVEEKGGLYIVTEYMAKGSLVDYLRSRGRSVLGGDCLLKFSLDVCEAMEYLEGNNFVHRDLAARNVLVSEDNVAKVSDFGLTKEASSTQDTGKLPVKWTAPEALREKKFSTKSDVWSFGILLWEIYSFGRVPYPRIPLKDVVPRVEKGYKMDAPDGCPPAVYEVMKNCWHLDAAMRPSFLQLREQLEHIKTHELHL
Procedure, shortened: as §1

T1 sequence (O75676 whole entry): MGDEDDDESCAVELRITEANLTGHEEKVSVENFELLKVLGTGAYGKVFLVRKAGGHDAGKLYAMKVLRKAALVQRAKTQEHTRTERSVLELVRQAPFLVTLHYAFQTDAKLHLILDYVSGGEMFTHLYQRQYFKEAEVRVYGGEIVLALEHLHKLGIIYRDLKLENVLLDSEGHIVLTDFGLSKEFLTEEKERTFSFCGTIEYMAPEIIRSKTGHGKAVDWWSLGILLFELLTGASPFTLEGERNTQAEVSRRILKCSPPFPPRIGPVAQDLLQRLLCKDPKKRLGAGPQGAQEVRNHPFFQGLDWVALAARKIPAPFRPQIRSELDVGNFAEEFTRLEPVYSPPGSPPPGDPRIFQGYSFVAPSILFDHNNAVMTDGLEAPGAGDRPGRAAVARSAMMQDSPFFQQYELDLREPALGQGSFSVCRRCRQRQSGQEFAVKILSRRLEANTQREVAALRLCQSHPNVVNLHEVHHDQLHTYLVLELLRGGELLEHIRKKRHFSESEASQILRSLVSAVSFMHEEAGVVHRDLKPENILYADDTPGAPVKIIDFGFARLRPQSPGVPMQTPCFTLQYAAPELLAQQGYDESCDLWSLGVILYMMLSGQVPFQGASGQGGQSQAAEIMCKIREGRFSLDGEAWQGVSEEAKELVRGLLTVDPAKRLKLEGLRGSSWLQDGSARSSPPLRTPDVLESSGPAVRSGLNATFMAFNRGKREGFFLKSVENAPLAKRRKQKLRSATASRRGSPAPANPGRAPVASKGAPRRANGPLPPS

Compound | inhibition at 1 µM (RPS6KA4 (MSK2)) | inhibition at 10 µM (RPS6KA4 (MSK2)) | inhibition at 1 µM (CSNK1G2 (CK1 gamma 2)) | inhibition at 10 µM (CSNK1G2 (CK1 gamma 2)) | inhibition at 1 µM (CAMK4 (CaMKIV)) | inhibition at 10 µM (CAMK4 (CaMKIV)) | inhibition at 1 µM [1] | inhibition at 10 µM [1] | inhibition at 1 µM (PIM2) | inhibition at 10 µM (PIM2) | inhibition at 1 µM (BMX) | inhibition at 10 µM (BMX) | inhibition at 1 µM (PRKD2 (PKD2)) | inhibition at 10 µM (PRKD2 (PKD2)) | inhibition at 1 µM (MET (cMet) Y1235D) | inhibition at 10 µM (MET (cMet) Y1235D) | inhibition at 1 µM (CSK) | inhibition at 10 µM (CSK)
COc1ccc2cc3c(N)nn(C(=O)c4cccc(N(C)C)c4)c3nc2c1 [MW05, (3-Amino-7-methoxypyrazolo[3,4-b]quinolin-1-yl)-[3-(dimethylamino)phenyl]methanone] | -3% | 4% | 4% | 13% | 2% | -9% | 15% | 61% | -1% | -3% | -10% | 4% | 11% | 10% | 1% | -44% | 9% | 13%
COc1ccc2c(c1OC)c(=O)n1c3ccc(O)cc3c3ccnc2c31 [MW01, 5-Hydroxy-10,11-dimethoxy-9H-benzo[c]indolo[3,2,1-ij][1,5]naphthyridin-9-one] | 12% | 24% | 22% | 41% | -3% | 16% | 91% | 97% | 6% | 13% | -8% | 6% | 38% | 71% | -2% | 4% | 11% | 18%
